Data taken from PubChem BioAssay (NCI).
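Step 1: Grow cells in 96-well plates. Step 2: Expose to compound for 48 hours at 5 concentrations. Step 3: Interpolate endpoints linearly; if unreached, use highest concentration. At the GI50, growth is halved. At the TGI there is no net growth.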

Assays:
Assay in all cases: NCI-60 cell line screen, 48 h
[1] = test system: A549 NSCLC
[2] = test system: EKVX NSCLC
[3] = test system: HL-60(TB) leukemia
[4] = test system: HOP-62 NSCLC
[5] = test system: HT29 colon
[6] = test system: IGROV1 ovarian
[7] = test system: NCI-H522 lung
[8] = test system: SF-295 CNS
[9] = test system: SF-539 CNS
[10] = test system: SK-MEL-28 melanoma
[11] = test system: SK-MEL-5 melanoma
[12] = test system: SN12C renal
[13] = test system: SR leukemia
[14] = test system: U251 CNS
[15] = test system: MALME-3M melanoma
[16] = test system: MOLT-4 leukemia
[17] = test system: RPMI-8226 leukemia
[18] = test system: SK-OV-3 ovarian

| Structure (SMILES) | TGI [1] [µM] | TGI [2] [µM] | TGI [3] [µM] | TGI [4] [µM] | TGI [5] [µM] | TGI [6] [µM] | TGI [7] [µM] | TGI [8] [µM] | TGI [9] [µM] | TGI [10] [µM] | TGI [11] [µM] | TGI [12] [µM] | TGI [13] [µM] | TGI [14] [µM] | GI50 [3] [µM] | TGI [15] [µM] | TGI [16] [µM] | GI50 [17] [µM] | TGI [17] [µM] | TGI [18] [µM] |
| --- | --- | --- | --- | --- | --- | --- | --- | --- | --- | --- | --- | --- | --- | --- | --- | --- | --- | --- | --- | --- |
| O=C(NCc1ccc(Cl)c(Cl)c1)c1nc2ccccc2nc1NCc1ccc(Cl)c(Cl)c1 | > 100 | > 100 | > 100 | > 100 | > 100 | > 100 | > 100 | > 100 | > 100 | > 100 | > 100 | > 100 | > 100 | > 100 |  |  |  |  |  |  |
| NNC(=O)COc1nc(-c2cccs2)nc2ccc(I)cc12 | 43.2 | 71 | > 100 | 75.6 | > 100 | 56.3 | 45.8 | 86.2 |  | 56.2 | 45 | 92.2 | 55.6 | 55.8 | 37.9 | 45.1 | > 100 | 16 | 39.4 | 61 |
| NS(=O)(=O)c1cc2c(cc1Cl)NC(C(=O)NNC(=O)c1ccncc1)=NS2(=O)=O | > 100 | > 100 | > 100 | > 100 | > 100 | > 100 | > 100 | > 100 | > 100 | > 100 | > 100 | > 100 | > 100 |  |  | > 100 | > 100 |  |  | > 100 |
| CC1SCCc2nc3ccccc3n21 (stereo unspecified) | > 100 | > 100 | > 100 | > 100 | > 100 | > 100 |  | > 100 | > 100 | > 100 | > 100 | > 100 | > 100 | > 100 |  |  | > 100 |  | > 100 | > 100 |
| CCOP(=O)(OCC)/C(C#N)=C(\C)c1ccco1 | > 10 | > 10 | > 10 | > 10 | > 10 | > 10 |  | > 10 | > 10 | > 10 | > 10 | > 10 | > 10 | > 10 |  | > 10 | > 10 |  | > 10 | > 10 |
| COc1ccc(-c2cc(-c3ccc(Nc4ccnc5cc(C(F)(F)F)ccc45)cc3)nc(N)c2C#N)c2ccccc12 | > 100 | > 100 | > 100 | > 100 |  |  |  | > 100 | > 100 |  | > 100 |  | > 100 | > 100 |  | > 100 | > 100 |  | > 100 | > 100 |
| O=C1CSC(c2cccc(Oc3ccccc3)c2)N1c1cc(Cl)ccc1Cl (stereo unspecified) | > 100 | 80.9 | > 100 | 47.1 | 50.5 |  | 41.1 | 55.3 | 35.6 | > 100 | 31.3 | 39.1 | 44 | 33.2 |  | 57.6 | 57.8 |  |  | > 100 |
| Cn1c(=O)c(C#N)c(O)c2cc3ccccc3nc21 | > 100 | > 100 | > 100 |  |  | > 100 |  | > 100 | > 100 | > 100 | > 100 | > 100 | > 100 | > 100 |  | > 100 | > 100 |  | > 100 | > 100 |
| COc1ccc(-c2cc(=O)c3cc(OC)c(OC)cc3[nH]2)cc1OC | > 100 | > 100 |  | > 100 | > 100 | > 100 | > 100 | > 100 | > 100 | > 100 | > 100 | > 100 | > 100 | > 100 |  | > 100 | > 100 |  | > 100 | > 100 |
| COc1cc(O)c2c(=O)c(O)c(-c3ccc(O)c(O)c3)oc2c1 | 50.3 | > 100 | 12.8 | 63.2 | 48.4 | > 100 | 25.5 | 72.3 |  | > 100 | 58.6 |  | > 100 | 24.7 |  | 69.3 | > 100 |  | > 100 | 56.9 |
| Nc1c(/C=C/c2cc3cc(C4=NCCN4)ccc3o2)[nH]c2cc(C3=NCCN3)ccc12 | > 100 | > 100 | > 100 | 96 | > 100 | > 100 | > 100 | > 100 | > 100 | 97.4 | > 100 | > 100 | > 100 | > 100 |  |  | > 100 |  | > 100 | > 100 |
| CC(=O)OC/C=C/Cn1nc(Br)c(=O)[nH]c1=O | > 100 | > 100 | > 100 | > 100 | > 100 | > 100 | > 100 | > 100 | > 100 | > 100 | > 100 | > 100 | > 100 | > 100 |  | > 100 | > 100 |  | > 100 |  |
| Cc1ccc(C(=O)C2CC3(CCC2(O)c2ccc(C)cc2)CC(=O)Nc2ccccc2C3=O)cc1 (stereo unspecified) | > 100 | > 100 | > 100 | > 100 | > 100 | > 100 |  | > 100 | > 100 | > 100 | 97.6 | > 100 | > 100 | > 100 |  | > 100 | > 100 |  |  | > 100 |
| CC(=O)OC1C(C)OC(OC2C[C@](O)(C(C)=O)Cc3c(O)c4c(c(O)c32)C(=O)c2ccccc2C4=O)C(F)C1OC(C)=O (stereo partly specified) | 2.17 | 99.2 |  | 13.8 | > 100 | 9.34 | 4.29 | 1.47 | 1.03 | > 31.3 | 2.18 | 7.76 | 0.887 | 3.65 |  | 4.08 | 0.112 |  | 2.14 | 22.1 |
| Nc1nc2c(c(-c3ccc(F)cc3)n1)COC/C2=C\c1ccc(F)cc1 |  | > 100 | > 100 | > 100 | 29.3 | > 100 | 22.7 | > 100 | > 100 | > 100 | > 100 | > 100 | 43.2 | 31 |  | 35.1 | > 100 |  | > 100 | > 100 |
| O=P1(C(O)c2ccccc2)N(Cc2ccccc2)[C@@H]2CCCC[C@H]2N1Cc1ccccc1 (stereo partly specified) | > 100 | > 100 | 47.2 | > 100 | 46.3 | 49.9 | 63.6 | 56.6 | 45.6 | > 100 | > 100 | 43 | 49.9 | > 100 |  | 73.1 | 49.1 |  |  | > 100 |
| CC(C)(C)OC(=O)NCCCCC1NC(=O)[C@@H]2Cc3c([nH]c4ccccc34)C(c3ccccc3)N2C1=O (stereo partly specified) | > 100 | > 100 | 52.3 | > 100 | 87.5 | > 100 | > 100 | 45.4 |  | > 100 | 97.8 | 79.6 | 62.8 | > 100 |  | > 100 | 60.2 |  | > 100 | > 100 |
| CCCCC(C)(C/C=C/[C@@H]1[C@@H](C(O)CCCCCC(=O)OC)C(=O)C[C@H]1O[Si](C)(C)C(C)(C)C)O[Si](C)(C)C (stereo partly specified) | > 100 | > 100 |  | > 100 | > 100 | > 100 | > 100 | > 100 | > 100 | > 100 | > 100 | > 100 | > 100 | > 100 |  | > 100 | 59.4 |  | > 100 | > 100 |
| CCCCN1/C(=N/Nc2n[nH]c(=O)c3ccccc23)SCC1c1ccc(Cl)cc1 (stereo unspecified) | > 100 | 41.2 | > 100 | 18.5 | 96.1 | 41.1 | 37.1 | 22.6 | 33.1 | 47.1 | 14.3 | > 100 | 24.6 | 21.2 |  | 62 |  |  | > 100 | > 100 |
| C[C@@H](c1ccccc1)N(CC#N)[C@H]1CCC[C@]1(O)/C=C/c1ccc2c(c1)OCO2 | > 25 | > 25 | > 25 | > 25 | > 25 | > 25 | > 25 | > 25 |  | > 25 | > 25 | > 25 | > 25 | > 25 |  | > 25 | > 25 |  | > 25 | > 25 |
| N#Cc1c(N)n(-c2nc3ccccc3s2)c(=O)c2cc([N+](=O)[O-])ccc12 | > 56.8 | > 56.3 | 24.9 | 22 | 14.3 |  | 25.6 | > 64.9 | 28 | > 100 |  | > 100 | 56.2 | > 100 |  | 36.7 | 19.9 |  | > 100 | 98.1 |
| CSC(=NCCCN=C(NS(=O)(=O)c1ccc(Cl)cc1)SC)NS(=O)(=O)c1ccc(Cl)cc1 |  | 53.1 | 47.1 | > 100 | > 100 | > 100 |  | > 100 | > 100 | > 100 |  | > 100 | > 100 | > 100 |  | 72.7 | 33.2 |  | > 100 | > 100 |
| CC(=O)Oc1cc(OC(C)=O)c2c(c1C)CC[C@@H]1[C@@H]2CC[C@]2(C)[C@@H](OC(C)=O)CC[C@@H]12 | 34.7 | 28 | 54.6 | 36 | 29.8 | 34.4 | 32 | 38 | 30.4 | 33 | 30.8 | 33.7 | 73.6 | 31.9 |  | 29.2 | 36.1 |  | 31.3 |  |
| O=C1Cc2c([nH]c3c(Br)cccc23)-c2ccccc2N1 | > 100 | > 100 | 73.8 | > 100 | > 100 | > 100 |  | > 100 | > 100 |  | > 100 | > 100 | 55.3 | > 100 |  | > 100 | 43.6 |  | > 100 | > 100 |
| COc1ccc(Sc2ccccc2[N+](=O)[O-])cc1 | > 100 | > 100 | 20.8 | > 100 | 59.9 | > 100 |  |  | > 100 | 46.4 | > 100 | > 100 | > 100 | 41.3 |  | > 100 | > 100 |  | > 100 | > 100 |
| O=C(c1ccccc1)n1c2ccc(Br)cc2c2nc3ccccc3nc21 |  | > 100 | > 100 | > 100 | > 100 | > 100 | > 100 | > 100 | > 100 | > 100 | > 100 | > 100 | > 100 | > 100 |  | > 100 | > 100 |  | > 100 |  |
| CC(=O)CC(=O)N1CCOC1=O | > 10 | > 10 | > 10 | > 10 | > 10 | > 10 |  | > 10 | > 10 | > 10 | > 10 | > 10 | > 10 | > 10 |  | > 10 | > 10 |  | > 10 | > 10 |
